Data published in patent US20070128217A1 (priority 2003, published 2007).

Columns and labels:
[1] = tested on: rabbit serum obtained by immunizing a rabbit with the SARS-CoV strain Frankfurt 1; type: binding; design: Binding of a rabbit serum to linear peptides / Binding of a rabbit serum to looped peptides / Rabbit serum linear peptides / Rabbit serum looped peptides / Binding of a rabbit serum to linear peptides of protein N of SARS-CoV Urbani (Rabbit serum linear peptides) / Binding of a rabbit serum to looped/cyclic peptides of protein N of SARS-CoV Urbani (Rabbit serum looped peptides): unit not given here
[2] = tested on: antibodies in sera from SARS patients (sera 1a, 1b, 2, 6, 37, 62, London, SARS-yellow, SARS-green); type: binding, human
[3] = tested on: control sera (pooled serum of ten healthy LUMC hospital workers; commercial negative donor pooled serum from the Dutch bloodbank); type: binding, human

| Sequence | Binding of a rabbit serum to linear peptides [1] | Binding of a rabbit serum to looped peptides [1] | Binding of serum 1a to linear peptides of protein E of SARS-CoV Urbani [2] | Binding of serum 1a to looped/cyclic peptides of protein E of SARS-CoV Urbani [2] | Binding of serum 1b to linear peptides of protein E of SARS-CoV Urbani [2] | Binding of serum 1b to looped/cyclic peptides of protein E of SARS-CoV Urbani [2] | Binding of serum 2 to linear peptides of protein E of SARS-CoV Urbani [2] | Binding of serum 2 to looped/cyclic peptides of protein E of SARS-CoV Urbani [2] | Binding of serum 6 to linear peptides of protein E of SARS-CoV Urbani [2] | Binding of serum 6 to looped/cyclic peptides of protein E of SARS-CoV Urbani [2] | Binding of serum 37 to linear peptides of protein E of SARS-CoV Urbani [2] | Binding of serum 37 to looped/cyclic peptides of protein E of SARS-CoV Urbani [2] | Binding of serum 62 to linear peptides of protein E of SARS-CoV Urbani [2] | Binding of serum 62 to looped/cyclic peptides of protein E of SARS-CoV Urbani [2] | Binding of serum London to linear peptides of protein E of SARS-CoV Urbani [2] | Binding of serum London to looped/cyclic peptides of protein E of SARS-CoV Urbani [2] | Binding of serum SARS-green to linear peptides of protein E of SARS-CoV Urbani [2] | Binding of serum SARS-green to looped/cyclic peptides of protein E of SARS-CoV Urbani [2] | Binding of serum SARS-yellow to linear peptides of protein E of SARS-CoV Urbani [2] | Binding of serum SARS-yellow to looped/cyclic peptides of protein E of SARS-CoV Urbani [2] | further results |
| --- | --- | --- | --- | --- | --- | --- | --- | --- | --- | --- | --- | --- | --- | --- | --- | --- | --- | --- | --- | --- | --- |
| NSVLLFLAFVVFLLV | 0.6 | 0.6 | 0.8 | 0.6 | 0.6 | 0.5 | 0.6 | 0.6 | 0.9 | 0.4 | 0.7 | 0.7 | 0.7 | 0.7 | 0.6 | 0.3 | 0.3 | 0.4 | 0.2 | 0.7 | Binding of Control Serum Blood-Bank to Looped peptides [3]: 0.6; Binding of Control serum Blood-bank to linear peptides [3]: 0.7; Binding of Control serum LUMC to linear peptides [3]: 0.7; Binding of Control serum LUMC to looped peptides [3]: 0.8 |
| RLCAYCCNIVNVSLV | 0.4 | 0.2 | 0.6 | 0.7 | 0.5 | 0.7 | 0.6 | 0.7 | 0.4 | 0.7 | 0.5 | 0.6 | 0.4 | 0.8 | 0.5 | 0.5 | 0.5 | 0.8 | 0.2 | 0.6 | Binding of Control Serum Blood-Bank to Looped peptides [3]: 0.7; Binding of Control serum Blood-bank to linear peptides [3]: 0.8; Binding of Control serum LUMC to linear peptides [3]: 0.6; Binding of Control serum LUMC to looped peptides [3]: 0.8 |
| SVLLFLAFVVFLLVT | 0.6 | 0.2 | 0.8 | 0.6 | 0.7 | 0.5 | 0.5 | 0.5 | 0.9 | 0.4 | 0.8 | 0.6 | 0.7 | 0.6 | 0.5 | 0.4 | 0.5 | 0.6 | 0.3 | 0.6 | Binding of Control Serum Blood-Bank to Looped peptides [3]: 0.6; Binding of Control serum Blood-bank to linear peptides [3]: 0.7; Binding of Control serum LUMC to linear peptides [3]: 0.5; Binding of Control serum LUMC to looped peptides [3]: 0.7 |
| TALRLCAYCCNIVNV | 0.2 | 0.4 | 0.7 | 0.7 | 0.5 | 0.4 | 0.5 | 0.8 | 0.4 | 0.6 | 0.5 | 0.7 | 0.5 | 0.9 | 0.5 | 0.5 | 0.6 | 0.7 | 0.2 | 0.9 | Binding of Control Serum Blood-Bank to Looped peptides [3]: 0.7; Binding of Control serum Blood-bank to linear peptides [3]: 0.5; Binding of Control serum LUMC to linear peptides [3]: 0.6; Binding of Control serum LUMC to looped peptides [3]: 0.7 |
| TLIVNSVLLFLAFVV | 0.1 | 0.3 | 0.7 | 0.6 | 0.5 | 0.5 | 0.4 | 0.7 | 0.5 | 0.4 | 0.5 | 0.7 | 0.3 | 0.6 | 0.6 | 0.4 | 0.6 | 0.5 | 0.3 | 0.6 | Binding of Control Serum Blood-Bank to Looped peptides [3]: 0.8; Binding of Control serum Blood-bank to linear peptides [3]: 0.6; Binding of Control serum LUMC to linear peptides [3]: 0.4; Binding of Control serum LUMC to looped peptides [3]: 0.8 |
